Laboratory results reported in ChEMBL document CHEMBL5579796, “Inhibition of dengue viruses by N-methylcytisine thio derivatives through targeting viral envelope protein and NS2B-NS3 protease” (Bioorg Med Chem Lett, 2024).
Active and inactive are the calls of the source. The calls are words filed in the database; no cut-off is given here.

Assays:
[1] = test system: dengue virus type 2; assay: Antiviral activity against DENV-2 16,681 infected in Vero E6 cells assessed as reduction in viral infection by measuring NS4B positive cells at 10 uM incubated for 4 days by immunofluorescence assay; format: functional; parameters: scale not given: the % may be the effect or the level left; settings: time 4 day
[2] = Selectivity index, ratio of CC50 for human A549 cells to EC50 for antiviral activity against DENV-2 16,681 infected in A549 cells; format: toxicity, cell-based; settings: read-out: Ratio CC50/EC50
[3] = test system: dengue virus type 2; assay: Antiviral activity against DENV-2 16,681 infected in Vero E6 cells assessed as reduction in viral infectivity by measuring NS4B-positive cells pretreated with compound for 1 hr followed by viral infection and washout measured after 96 hrs by immunofluorescence analysis; format: functional, organism-based; settings: Dengue virus, 16,681, Vero C1008
[4] = test system: dengue virus type 2; assay: Antiviral activity against DENV-2 16,681 infected in A549 cells assessed as reduction in virus induced cytopathic effect measured after 96 hrs by inverted microscopic analysis; format: functional, organism-based; settings: Dengue virus, 16,681, A549, 96 h
[5] = Selectivity index, ratio of CC50 for african green monkey Vero E6 cells to EC50 for antiviral activity against DENV-2 16,681 infected in Vero E6 cells; format: toxicity, cell-based; settings: read-out: Ratio CC50/EC50
[6] = Cytotoxicity against african green monkey Vero E6 cells by MTT assay; format: toxicity, cell-based, Vero C1008; settings: chlorocebus sabaeus
[7] = test system: dengue virus type 2; assay: Antiviral activity against DENV-2 16,681 infected in Vero E6 cells assessed as reduction in viral infectivity by measuring NS4B-positive cells at 0.1 uM incubated for 1 hr followed by washout and measured after 96 hrs by immunofluorescence analysis; format: functional; parameters: scale not given: the % may be the effect or the level left
[8] = test system: dengue virus type 2; assay: Antiviral activity against DENV-2 16,681 infected in Vero E6 cells assessed as reduction in virus induced cytopathic effect at 10 uM incubated for 4 days by inverted microscopic analysis; format: functional, organism-based; settings: time 4.0 day
[9] = Cytotoxicity against human A549 cells by MTT assay; format: toxicity, cell-based
[10] = biological target: Genome polyprotein (dengue virus type 2, UniProt P29990); assay: Inhibition of DENV-2 NS2B/NS3 protease expressed in HEK293 cells cotransfected with CFP-trrg-YFP incubated for 24 hrs by FRET assay; format: cell-based
[11] = test system: dengue virus type 2; assay: Antiviral activity against DENV-2 16,681 infected in Vero E6 cells assessed as reduction in viral infectivity by measuring NS4B-positive cells incubated for 1 hr followed by washout and subsequent culturing; format: functional, organism-based; settings: Dengue virus, 16,681, Vero C1008, 1 h
[12] = test system: dengue virus type 2; assay: Antiviral activity against DENV-2 16,681 infected in Vero E6 cells assessed as reduction in virus induced cytopathic effect measured after 96 hrs by inverted microscopic analysis; format: functional, organism-based; settings: Dengue virus, 16,681, Vero C1008, 96 h
[13] = test system: dengue virus type 2; assay: Antiviral activity against DENV-2 16,681 infected in Vero E6 cells assessed as reduction in viral infectivity by measuring NS4B-positive cells at 1 uM pretreated with virus for 1 hr followed by compound addition for 1 hr prior to washout and measured after 96 hrs by immunofluorescence analysis; format: functional
[14] = test system: dengue virus type 2; assay: Antiviral activity against DENV-2 16,681 infected in Vero E6 cells assessed as reduction in viral infectivity by measuring NS4B-positive cells pretreated with virus for 1 hr followed by compound addition for 1 hr prior to washout and measured after 96 hrs by immunofluorescence analysis; format: functional, organism-based; settings: Dengue virus, 16,681, Vero C1008
[15] = test system: dengue virus type 2; assay: Antiviral activity against DENV-2 16,681 infected in Vero E6 cells assessed as reduction in viral infectivity by measuring NS4B-positive cells at 10 uM pretreated with compound for 1 hr followed by viral infection and washout measured after 96 hrs by immunofluorescence analysis; format: functional; parameters: scale not given: the % may be the effect or the level left
[16] = test system: dengue virus type 2; assay: Antiviral activity against DENV-2 16,681 infected in Vero E6 cells assessed as reduction in viral infectivity by measuring NS4B-positive cells incubated for 1 hr followed by washout and measured after 96 hrs by immunofluorescence analysis; format: functional, organism-based; settings: Dengue virus, 16,681, Vero C1008

| Compound | Activity [1] | selectivity ratio [2] | EC50 [3] | EC50 [4] | selectivity ratio [5] | CC50 [6] | Activity [7] | Activity [8] | CC50 [9] | IC50 [10] | EC50 [11] | EC50 [12] | Activity [13] | EC50 [14] | Activity [15] | EC50 [16] |
| --- | --- | --- | --- | --- | --- | --- | --- | --- | --- | --- | --- | --- | --- | --- | --- | --- |
| CN1C[C@@H]2C[C@H](C1)c1cccc(=S)n1C2 | 88.7% | > 23.7 | > 10000 nM | 2110 nM | > 53.2 | > 50000 nM | >50% | Active | > 50000 nM | 13500 nM | 1020 nM | 940 nM | inactive | 4080 nM | <40% | 110 nM |
| CN1C[C@@H]2C[C@H](C1=S)c1cccc(=O)n1C2 | 95% | > 25000 | > 10000 nM | 2 nM | > 10000 | > 50000 nM | >50% | Active | > 50000 nM | 2760 nM | 100 nM | 5 nM | >60% | 670 nM | <40% | 20 nM |
| CN1C[C@H]2C[C@H](Cn3c2cccc3=S)C1=S | 60% |  |  |  |  |  |  | Active |  |  |  |  |  |  |  |  |
| CN1C[C@H]2C[C@H](Cn3c2cccc3=O)C1=S | 64.9% |  |  |  |  |  |  | Active |  |  |  |  |  |  |  |  |
| CN1C[C@@H]2C[C@H](C1=S)c1cccc(=S)n1C2 | 61% |  |  |  |  |  |  | Active |  |  |  |  |  |  |  |  |
